Measured values from patent US20100210611A1, “COMBINATION THERAPY” (priority 2007, published 2010).
Several values for one entry are separate records, joined by “and”; a condition that tells them apart may be missing. Equal entries are not always repeated.

Assay: Aerodynamic particle size distribution, Andersen cascade impaction (ACI)
Format: physicochemical
Conditions: Spinhaler; for MMAD: cutoff diameter based on airflow rate of 28.3 L/min; for amount in ACI: including mouthpiece adapter
Text: The Andersen cascade impaction (ACI) (Apparatus 3) was the device used to determine the aerodynamic size distribution. The impaction provided in vitro measurements of the fraction of the aerosol that has the potential to reach the alveolar region of the lung. This value is represented by the portion of particles detected below plate 2. The impaction was operated at the flow rate and test time according to the method described in USP <601>. Because the Spinhaler® is a low resistance device, it is difficult to achieve a pressure drop of 4 kPa, an adjustment of the air flow rate at the intake of the flow control was performed, as discussed above. Each impaction plate was coated with silicone grease (316 Dow Corning) to prevent particles from bouncing off the plates and returning to the air stream. All stages were used since the test flow rate was less than 60 L/min. All pieces of the impaction including the inhaler and capsule were rinsed with solvent, diluted to suitable volumes, sonicated, centrifuged and assayed using the UV-VIS spectrophotometer. The respirable portion was quantified by the in vitro fine particle fraction and fine particle mass. Dose uniformity and cascade impaction tests were carried out at controlled temperature (20-25° C.) and humidity (50% RH). […]
Aerodynamic size distribution was performed according to USP Chapter <601> by using ACI Apparatus 3 with the Spinhaler® device analogous to that described in section Aerodynamic Particle Size Distribution for Example 1. However, the HPLC was used to analyze the content of the drugs as described in the Blend Uniformity in this example.
Aerodynamic size distribution was performed according to USP Chapter <601> by using ACI Apparatus 3 with the Spinhaler® device in a manner analogous to that described in section Aerodynamic Particle Size Distribution in Example 4. The content of the drugs were analyzed as described in the Blend Uniformity in this example.

[1] = Example 4 blend, blend with mometasone furoate
[2] = Example 5 blend, blend with ciclesonide

In the case of `CC(C)(O)c1ccccc1CC[C@@H](SCC1(CC(=O)O)CC1)c1cccc(/C=C/c2ccc3ccc(Cl)cc3n2)c1` [Montelukast Acid, montelukast acid], the FPF (Example 4 blend) is reported as 29%, the FPD [1] is reported as 126.1 µg and 145.7 µg and 118.7 µg and the FPF [1] is reported as 28.6% and 28.4% and 29.9%. For the same molecule, the GSD [1] was 2.1 and 1.4, the Total recovered [1] was 953 µg and 962 µg and 921 µg and the amount in inhaler [1] was 512 µg and 450 µg and 524 µg. For the same molecule, the MMAD (Example 4 blend) was 4.5 μm, the MMAD [1] was 4.6 μm and 4.4 μm and the MMAD (Example 4 blend, mean) was 4.5 μm. For the same molecule, the “amount in ACI” value [1] was 441 µg and 513 µg and 397 µg, the “amount in ACI” value (Example 4 blend, mean) was 450 µg and the FPD (Example 4 blend, mean) was 130.2 µg. The FPF (Example 4 blend, mean) was 29.0%, the GSD (Example 4 blend, mean) was 1.6 and the Total recovered (Example 4 blend, mean) was 945 µg. For the same molecule, the amount in inhaler (Example 4 blend, mean) was 495 µg, the FPF (Example 5 blend) was 38% and the FPD [2] was 161.8 µg and 190.6 µg and 179.0 µg. For the same molecule, the FPF [2] was 35.2% and 40.7%, the GSD [2] was 1.5 and 2.0 and the Total recovered [2] was 990 µg and 882 µg and 904 µg. For the same molecule, the amount in inhaler [2] was 530 µg and 413 µg and 431 µg, the MMAD (Example 5 blend) was 3.9 μm and the MMAD [2] was 3.9 μm and 4.0 μm and 3.8 μm. For the same molecule, the “amount in ACI” value [2] was 459 µg and 468 µg and 472 µg, the “amount in ACI” value (Example 5 blend, mean) was 467 µg and the FPD (Example 5 blend, mean) was 177.1 µg. The FPF (Example 5 blend, mean) was 37.9%, the GSD (Example 5 blend, mean) was 1.7 and the Total recovered (Example 5 blend, mean) was 925 µg. For the same molecule, the amount in inhaler (Example 5 blend, mean) was 458 µg.
